# Reference: patent US5667764A, “Compounds, compositions and methods for binding bio-affecting substances to surface membranes of bio-particles” (Zynaxis, Inc., priority 1992, dated 1997)
# Where two headings read alike, the source gives them in different places.
# How the values were obtained:
# [1] = tested on: red blood cell ghosts (plasma membrane); experiment: Membrane retention coefficient (MRC) in red blood cell ghosts; assay type: binding; settings: 24 hr; Table II
# Description: Determination of Membrane Retention Coefficient
# The membrane retention coefficient (MRC) provides information regarding how well a given compound is retained in the plasma membrane of a cell and is determined as described below.
# Generation of red blood cell ghosts for use as a model membrane is achieved by centrifuging whole blood at 300×g for 15 minutes, removal of the plasma and resuspension of the cell pellet in 0.83% (w/v) ammonium chloride. The ghosts are pelleted from the ammonium chloride by centrifuging at 10,000×g for 10 minutes. This ammonium chloride washing procedure is repeated a minimum of five times to insure that complete release of hemoglobin from the cells has occured. The ghosts are labeled with the compound in question at a concentration allowing for detection of the labeled ghosts by instrumental analysis or fluorescent microscopic methods, and at a concentration similar to those that would be used to label cells for a specific application as described above. For the determinations hereinbelow stock solutions of the compounds in question were prepared in ethanol at a molar concentration of 2×10^-3, and working dilutions of the compounds were prepared in iso-osmotic sucrose (52 g/500 ml distilled water). After incubation of the ghosts at an approximate concentration of 1×10^9 ghosts/ml in the working dilutions of the compounds for 10 minutes, the samples were centrifuged at 10,000×g to pellet the ghosts and the staining solution was aspirated from the samples. The labeled ghosts were resuspended in 1 ml of phosphate buffered saline solution containing 10% fetal bovine serum (PBS-FBS). Triplicate 20 ul aliquots were removed from each sample for the determination of the amount of total compound present. The samples were centrifuged as described above and triplicate 20 ul aliquots were removed from the supernatant for quantitative determination of amount of unbound compound present.
# After sampling, the supernatant was aspirated and the red cell ghost pellet was resuspended in 1.0 ml of the PBS-FBS, which was once again sampled as described above. This procedure was repeated at least six times, allowing for detection of rapidly released compounds and was monitored after times equal to or greater than 24 hours to allow for the detection of more slowly released compounds. For the determination of the amount of compound present in each sample, the 20 ul aliquots were extracted into 3.0 ml of n-butanol by shaking. The samples were centrifuged at 3000×g to remove membrane debris and the butanol fractions were assayed for compound concentration. Fluorescent compounds are assayed in this manner using peak excitation and emission wave lengths for the particular compounds being assayed to determine the fluorescence units for each sample.
# The determination of the amount of compound present in each sample as described above allows for the calculation of the MRC for each washing or fixed time point. The value is obtained by the following formula: […]
# wherein CT represents the amount of compound present (in units determined by the method used to assay the compound) in the total sample and CS represents the amount of compound present in the supernatant sample for that particular time point. The comparison of the MRC values defines criteria for identification of the compounds of this invention, these criteria being: 1) the MRC values determined for each washing steps should have a value of at least about 90 and 2) the percent difference between MRC values over at least a 24 hour time period should be less than about 10%. [drawing 14]
# The data provided in Table I below are the results from one experiment and serve as an example of the MRC determination. […]
# membrane ghosts = experiment: Membrane binding stability (MBS) assay in membrane ghosts with 5% albumin; settings: 24 hours; for MBS (% of max.): Table II; for MBS: Table III
# Excerpt: Determination of Membrane Binding Stability
# For example, very stable binding to membranes might be required for applications such as delivery of therapeutic radionuclides to tumor sites, as loss of compound could lead to the radionuclide producing its toxic effect at non-tumor sites. On the other hand, more rapid loss of compound from biomembranes may be desirable for application involving controlled delivery rates of therapeutic agents. Accordingly, there is described hereinbelow an assay for determining MBS under conditions approximating those found in vivo.
# In carrying out this assay, approximately physiological concentrations of serum albumin (5%) are used. […] To better approximate the effects of large fluid volumes to which labelled cells are exposed in vivo, the assay for MBS is carried out by suspending a decreasing number of labeled membrane ghosts in a fixed volume of albumin-containing saline. At 24 hours, the total amount of label present is determined by sampling the well mixed suspension; subsequently, the membrane ghosts are pelleted by centrifugation and the amount of label released into the supernatant is determined and expressed as a percent of total label. Percent retention is plotted against number of ghosts per ml. of suspension, and MBS is determined as the area under the curve between 5×10^7 ghosts/ml. and 4×10^8 ghosts/ml.
# [2] = In vivo loss of dye from labeled, reinjected erythrocytes; settings: rabbit, iv
# Description: (§2) *Half life for loss of dye from rabbit erythrocytes after labeling and
# rabbit erythrocytes = settings: iv
# Description: as §2
# A10 cells = experiment: Antiproliferative activity on A10 cells after one 10 minute application; assay type: cell-based, rat; settings: for Cell count: 10 minute application; for activity at 10 µM: Rattus norvegicus, read-out: % of Vehicle Maximum
# Description: To determine the antiproliferative action of the compounds of invention, in vitro studies were performed using A10 cells, a clonal cell line originally derived from the thoracic aorta of embryonic rats, that proliferate as myoblasts and develop into cells which phenotypically resemble smooth muscle cells (B. Kimes and B. Brandt, Exptl. Cell Res. 98:349 (1976). Typically, twelve-well plates were seeded with 2500-10,000 A10 cells/cm^2 in Dulbecco's Modified Eagles Medium (DMEM) with 10% fetal calf serum (FCS) and allowed to adhere and stabilize for 24 hours at 37° C. Test substances were then prepared in the required concentrations in appropriate cell binding media and, after aspirating the plating medium, applied to the individual wells at 37° C. for a period of only 10 minutes. The treatments were then aspirated, the wells washed 4 times with non-treatment containing medium and then placed in non-treatment containing DMEM with 10% FCS for the duration of the study. At various times after treatment application, triplicate wells were aspirated, the aspirate saved, and the wells treated with 0.25 ml of 0.25% trypsin to release the adherent cells. The enzymatic action of trypsin on the cells was stopped by addition of excess protein (1.75 ml DMEM+10% FCS), the aspirate returned to the wells, and an aliquot of the resultant cell suspension counted in a Coulter Counter (Model ZM with Sampling Stand II). Cell count was normalized to cells per square centimeter of growing area (surface area of well bottom).
# [3] = Colchicine plasma concentration in rabbits (estimated); assay type: in vivo; settings: rabbit 0.2 mg/kg/day vs human 1 mg/day
# Description: (§1) Bochner et al., Handbook of Clinical Pharmacology, Little, Brown and Co., Boston (1983), pp. 151-152. […] Thus, the concentration of colchicine in rabbits shown to prevent restenosis was 14 times the concentration achieved in the clinical trial. The compounds of invention can be prepared in the above-described compatible binding media up to 100 μM, i.e., 1400 times the concentration shown to be effective in the animal study, and delivered directly to the arterial wall by catheter during an angioplasty procedure.
# [4] = 1 mg/day human; cited from earlier work
# [5] = Colchicine blood/plasma level in humans; assay type: in vivo; settings: 1 mg/day human; read-out: Peak plasma concentration
# Description: as §1
# restenosis = settings: patients; limiting toxicity; cited from earlier work
smiles,measurement,setting,value
CCCCCCCCCCCCCCCCN1C(=CC=CC2=[N+](CCCCCCCCCCCCCCCC)c3ccccc3C2(C)C)C(C)(C)c2ccccc21 [S],MRC# (at 24 hr.),[1],87 ± 1.2
same,MBS (% of max.),membrane ghosts,79 ± 3.7 % of max.
same,half-life,[2],58 days
CCCCCCCCCCCCCCCCCCCCCC[N+]1=C(C=CC=C2N(CCCCCCCCCCCC)c3ccccc3C2(C)C)C(C)(C)c2ccccc21 [P],MRC# (at 24 hr.),[1],65 ± 2.0
same,MBS (% of max.),membrane ghosts,48 ± 3.1 % of max.
same,In vivo membrane half-life,rabbit erythrocytes,1.4 days
CCCCCCCCCCCCCCN1C(=CC=CC2=[N+](CCCCCCCCCCCCCC)c3ccccc3C2(C)C)C(C)(C)c2ccccc21 [R],MRC# (at 24 hr.),[1],87 ± 0.6
same,MBS (% of max.),membrane ghosts,55 ± 1.7 % of max.
same,MBS,membrane ghosts,55 ± 1.6%
same,half-life,[2],36 days
CCCCCCCCCCCC[N+]1=C(C=CC=C2N(CCCCCCCCCC)c3ccccc3C2(C)C)C(C)(C)c2ccccc21 [Compound 0],MRC# (at 24 hr.),[1],30 ± 4.7
same,MBS (% of max.),membrane ghosts,19 ± 3.5 % of max.
same,In vivo membrane half-life,rabbit erythrocytes,< 1 days
CCCCCCCCCCCCCC[N+]1=C(C=CC=C2N(CCC)c3ccccc3C2(C)C)C(C)(C)c2ccccc21 [Q],MRC# (at 24 hr.),[1],85 ± 0.6
same,MBS (% of max.),membrane ghosts,41 ± 5.0 % of max.
same,MBS,membrane ghosts,42 ± 5.7%
same,In vivo membrane half-life,rabbit erythrocytes,10 ± 0.7 days
"COc1cc2c(c(OC)c1OC)-c1ccc(OC)c(=O)cc1[C@@H](NC(C)=O)CC2 [Colchicine, colchicine]",Cell count,"A10 cells; 10 μM, day 0",3006.53 cells per square centimeter
same,Cell count,"A10 cells; 10 μM, day 1",3778.07 cells per square centimeter
same,Cell count,"A10 cells; 10 μM, day 2",4249.35 cells per square centimeter
same,Cell count,"A10 cells; 10 μM, day 3",7785.90 cells per square centimeter
same,Cell count,"A10 cells; 10 μM, day 6",57626.63 cells per square centimeter
same,Cell count,"A10 cells; 10 μM, day 7",118127.94 cells per square centimeter
same,% of Vehicle Maximum,"A10 cells; 10 μM, day 0, 0 min",1.44%
same,activity at 10 µM,"A10 cells; A10, 24 h, 10 μM, day 1",1.81%
same,activity at 10 µM,"A10 cells; A10, 48 h, 10 μM, day 2",2.04%
same,activity at 10 µM,"A10 cells; A10, 72 h, 10 μM, day 3",3.73%
same,activity at 10 µM,"A10 cells; A10, 144 h, 10 μM, day 6",27.6%
same,activity at 10 µM,"A10 cells; A10, 168 h, 10 μM, day 7",56.6%
same,Cell density relative to vehicle-treated cells,A10 cells; day 7,only one-half the cell density of vehicle-treated cells
same,Increase in cell number over that with the colchicine conjugate,A10 cells; day 7,approximately 10 fold
same,Colchicine concentration in rabbits vs clinical trial,[3],14 times
same,Peak plasma concentration,[4],2 ng/mL
same,Cmax,[5],5 nM
same,Maximum tolerated dose,restenosis,≤ 1 mg/day
